# Measurements taken from the supplement of paper PMC10307832.
# Legend:
# Experiment in all cases: relative viability (nuclei count vs DMSO), 5 days (fraction); higher = more cells survive
# [1] = compound: C1=CC=C(C(=C1)C2=CC=C(C=C2)C3=CSC4=C3C(=C(C(=O)N4)C#N)O)O + N=C(N)NC(=N)NCCc1ccccc1 [Phenformin] (partner 250 µM)
# Method in brief: (§1)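 For relative viability, nuclei counts in treated wells were divided by those in vehicle wells. Lung cancer cell lines had been pin-tool dosed in 1536-well plates the day after seeding and cultured for 5 days, then fixed and stained in one step (final 0.05% Triton X-100, 1% formaldehyde, 1 ug/ml Hoechst) and imaged at 4×. Doses were one drug alone or a fixed anchor-drug dose plus five library-drug doses (not always all listed) in √10 steps, and values are duplicate-plate medians.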
# [2] = compound: O=C(CCCCCCNC(=O)c1cnc(N(c2ccccc2)c2ccccc2)nc1)NO [Ricolinostat] + CC(C)C[C@H](NC(=O)[C@H](Cc1ccccc1)NC(=O)c1cnccn1)B(O)O [Bortezomib] (partner 0.002 µM)
# Method in brief: as §1
# [3] = compound: C1=CC=C(C(=C1)C2=CC=C(C=C2)C3=CSC4=C3C(=C(C(=O)N4)C#N)O)O + C[C@@H](Oc1cc(-c2cnn(C3CCNCC3)c2)cnc1N)c1c(Cl)ccc(F)c1Cl [Crizotinib] (partner 1 µM)
# Method in brief: as §1
# TGX 221 + Dasatinib = compound: CC1=CN2C(=O)C=C(N=C2C(=C1)C(C)NC3=CC=CC=C3)N4CCOCC4 [TGX 221] + Cc1nc(Nc2ncc(C(=O)Nc3c(C)cccc3Cl)s2)cc(N2CCN(CCO)CC2)n1 [Dasatinib] (partner 0.075 µM)
# Method in brief: as §1
Cell Line,relative viability ([1]; first compound 0.08 µM),relative viability ([1]; first compound 0.253 µM),relative viability ([1]; first compound 0.8 µM),relative viability ([1]; first compound 2.53 µM),relative viability ([1]; first compound 8 µM),relative viability ([2]; first compound 0.253 µM),relative viability ([2]; first compound 0.8 µM),relative viability ([2]; first compound 2.53 µM),relative viability ([3]; first compound 0.08 µM),relative viability ([3]; first compound 0.253 µM),relative viability ([3]; first compound 0.8 µM),relative viability ([3]; first compound 2.53 µM),relative viability ([3]; first compound 8 µM),relative viability (TGX 221 + Dasatinib; first compound 0.08 µM),relative viability (TGX 221 + Dasatinib; first compound 0.253 µM),relative viability (TGX 221 + Dasatinib; first compound 0.8 µM),relative viability (TGX 221 + Dasatinib; first compound 2.53 µM),relative viability (TGX 221 + Dasatinib; first compound 8 µM),relative viability ([2]; first compound 0.08 µM)
NCI-H1355,0.396,0.487,0.445,0.422,0.396,1.23,1.17,1.06,1.2,1.16,0.991,1.03,0.841,0.688,0.688,0.721,0.688,0.632,
NCI-H2228,0.316,0.318,0.322,0.307,0.225,0.807,0.907,0.594,0.385,0.505,0.495,0.33,0.392,0.508,0.471,0.517,0.474,0.398,0.789
LXF-289,0.491,0.538,0.553,0.507,0.485,0.931,0.993,0.874,0.779,0.852,0.789,0.845,0.826,0.209,0.254,0.194,0.18,0.203,0.951
NCI-H2085,0.765,0.951,0.665,0.685,0.568,1.15,0.969,0.765,0.704,0.983,0.859,0.952,0.867,0.228,0.195,0.208,0.191,0.187,
EMC-BAC-2,0.38,0.563,0.492,0.533,0.43,1.12,1.06,0.941,0.741,0.824,0.632,0.821,0.644,0.279,0.306,0.321,0.315,0.351,0.957
NCI-H3122,0.352,0.364,0.432,0.387,0.37,1.08,0.987,1.09,0.317,0.34,0.248,0.271,0.302,0.931,0.83,0.865,0.794,0.872,0.914
LC-2-ad,0.518,0.657,0.608,0.576,0.551,0.984,0.966,0.787,0.42,0.489,0.452,0.49,0.438,0.459,0.51,0.66,0.55,0.505,0.992
NCI-H1734,0.368,0.381,0.41,0.377,0.319,0.954,0.958,0.827,0.627,0.703,0.689,0.634,0.444,0.472,0.393,0.433,0.444,0.391,0.758
NCI-H1975,0.379,0.425,0.403,0.393,0.394,0.357,,0.233,0.852,1.03,1.01,1.05,0.721,0.347,0.335,0.318,0.345,0.343,0.406
NCI-H1650,0.406,0.358,0.437,0.439,0.362,0.195,0.193,0.205,,1.16,0.943,1.06,0.919,0.236,0.29,0.28,0.323,0.242,0.184
NCI-H1651,0.272,0.336,0.398,0.365,0.278,0.865,0.918,0.984,0.878,0.823,0.851,0.878,0.826,0.505,0.371,0.464,0.345,0.362,0.941
NCI-H1437,0.297,0.452,0.237,0.303,0.26,0.513,0.479,0.256,0.699,0.989,0.883,1.01,0.765,0.408,0.427,0.517,0.323,0.356,0.561
NCI-H647,0.285,0.615,0.586,0.555,0.349,1.06,0.948,0.421,0.79,1.24,1.23,1.14,0.924,0.189,0.145,0.15,0.163,0.136,0.877
LU99A,0.765,0.838,0.769,0.891,0.896,0.952,0.976,0.745,0.52,0.524,0.598,0.616,0.527,0.507,0.507,0.509,0.556,0.593,1.02
